Patent US20050255582A1, “Surface modifying composition” (Arch Development Corporation:, priority 2000, published 2005)

Experiments:
Assay type in all cases: binding
[1] = test system: Fibrinogen; assay: SPR adsorption of protein on monolayers: fibrinogen; settings: for amount of protein that remains adsorbed to the SAM (Fibrinogen): protein 0.5 mg/ml in PBS pH 7.6, SAM on gold
Experimental: (§1) Two experimental procedures were used to evaluate the monolayers as inert surfaces. Surface plasmon resonance (SPR) spectroscopy measures the adsorption of protein to the monolayer. All SPR experiments were performed on a BIAcore 1000 instrument. Substrates were glued into plastic BIACore cassettes with a two-part epoxy (DEVCON). Phosphate-buffered saline (PBS; 10 mM phosphate, 150 mM sodium chloride, pH 7.6) was degassed under vacuum and all protein solutions were filtered through 0.45-μm filters before use. SPR is well suited for characterization of protein adsorption because it measures adsorption in situ and can detect weak, readily reversible protein adsorption. For all monolayers, a panel of five proteins that spanned a range in molecular weight and pI were investigated.
Protein adsorption and cell attachment on four different monolayers was compared. Gold films were prepared by evaporation of titanium (1.5 nm) and then gold (40 nm) onto glass cover slips (0.20 mm, No. 2, Corning). The SAMs were prepared by immersing gold films of approximately 1 cm^2 in ethanolic solutions of alkanethiol (2 mM) for 9 hours. The SAMs were rinsed with ethanol and dried with nitrogen before use. As a control monolayer that is not inert, a SAM of hexadecanethiolate that presents hydrophobic methyl groups at the surface were used. Monolayers terminated in the tri(ethylene glycol) group were used as the current standard for inert surfaces. Each of the two additional monolayers presents the mannitol group and differs only in the length of alkyl chain to which the mannitol group is appended. [drawing 9]
SPR was used to measure the adsorption of five proteins—fibrinogen, pepsin, lysozyme, insulin, and trypsin—to the four monolayers. SPR measures changes in the refractive index of a solution near the interface with a gold film by measuring changes in the angle (ΔΘm) at which p-polarized light reflected from the glass/gold interface has a minimum in intensity. SAMs were mounted in a flow cell and experiments were performed by first flowing a phosphate buffered saline (PBS) through the cell for 5 minutes, then a solution of protein in the same buffer (0.5 mg/ml) for 5 minutes, and then PBS for 5 minutes. The rise in ΔΘm upon introduction of the protein solution has two contributions. […] The second contribution is due to the adsorption of protein to the SAM. The amount of protein that adsorbs irreversibly to the SAM is determined by comparing the shift in Θm before and after the SAM is exposed to protein. An increase in Θm of 0.1° corresponds to an increase in density of adsorbed protein of 1 ng/mm^2.

[2] = target: Pepsin (Homo sapiens, UniProt P0DJD8); assay: SPR adsorption of protein on monolayers: pepsin; settings: protein 0.5 mg/ml in PBS pH 7.6, SAM on gold
Sequence of Pepsin (P0DJD8 63-388): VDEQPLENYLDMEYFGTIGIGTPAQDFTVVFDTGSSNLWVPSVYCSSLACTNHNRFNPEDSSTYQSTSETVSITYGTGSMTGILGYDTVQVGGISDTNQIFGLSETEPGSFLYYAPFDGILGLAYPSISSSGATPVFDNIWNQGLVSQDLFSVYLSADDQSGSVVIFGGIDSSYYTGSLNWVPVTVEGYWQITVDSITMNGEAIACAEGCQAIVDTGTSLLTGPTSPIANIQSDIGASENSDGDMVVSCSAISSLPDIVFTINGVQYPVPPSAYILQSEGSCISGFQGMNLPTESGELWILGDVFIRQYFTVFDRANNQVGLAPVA
Experimental: as §1
(§2) Protein adsorption and cell attachment on four different monolayers was compared. Gold films were prepared by evaporation of titanium (1.5 nm) and then gold (40 nm) onto glass cover slips (0.20 mm, No. 2, Corning). […]
(§3) SPR was used to measure the adsorption of five proteins—fibrinogen, pepsin, lysozyme, insulin, and trypsin—to the four monolayers. […] The amount of protein that adsorbs irreversibly to the SAM is determined by comparing the shift in Θm before and after the SAM is exposed to protein. […]

[3] = target: T1, Lysozyme (Homo sapiens, UniProt P61626); assay: SPR adsorption of protein on monolayers: lysozyme; settings: protein 0.5 mg/ml in PBS pH 7.6, SAM on gold
T1 sequence (P61626 19-148): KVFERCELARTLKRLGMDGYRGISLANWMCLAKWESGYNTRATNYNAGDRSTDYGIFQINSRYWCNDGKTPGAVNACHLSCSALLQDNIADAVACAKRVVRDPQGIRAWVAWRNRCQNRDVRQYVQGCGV
Experimental: as §1, §2, §3

[4] = test system: Insulin; assay: SPR adsorption of protein on monolayers: insulin; settings: protein 0.5 mg/ml in PBS pH 7.6, SAM on gold
Experimental: as §1, §2, §3

[5] = test system: Trypsin; assay: SPR adsorption of protein on monolayers: trypsin; settings: protein 0.5 mg/ml in PBS pH 7.6, SAM on gold
Experimental: as §1, §2, §3

CCCCCCCCCCCCCCCCS [HDT, hexadecanethiolate]
adsorption of fibrinogen to the SAM (in words) ([1]; FIG. 1): A complete monolayer of protein adsorbs | change in Θm on adsorption of fibrinogen ([1]; FIG. 1): 0.35 ° | amount of protein that remains adsorbed to the SAM (Fibrinogen) [1]: 3,432 pg/mm^2 | amount of protein that remains adsorbed to the SAM (Fibrinogen) ([1]; listed as hexadecanethiolate): 3,500 pg/mm^2 | amount of protein that remains adsorbed to the SAM (Pepsin) [2]: 1,337 pg/mm^2 | amount of protein that remains adsorbed to the SAM (Lysozyme) [3]: 1,023 pg/mm^2 | amount of protein that remains adsorbed to the SAM (Insulin) [4]: 688 pg/mm^2 | amount of protein that remains adsorbed to the SAM (Trypsin) [5]: 661 pg/mm^2
